Assays:
physchem = type: physicochemical; conditions: for D (partition ratio), incubation 1 / D (partition ratio), incubation 2 / D (partition ratio), incubation 3: Table S2, n-octanol/PBS pH 7.4
Description: Determination of Distribution Coefficient (LogD, pH 7.4) […]
n-octanol – phosphate buffered saline (PBS), pH 7.4. Distribution coefficient (or LogD) is a […]
Phosphate buffered saline, tablet (Sigma-Aldrich, USA; Cat # P4417)
Acetic acid (Enamine, Ukraine.)
DMSO stock solutions of the test compounds 10mM
Gradient HPLC system (Shimadzu, Japan)
MTR22 Multi Mix Rotator (UNICO, USA)
Laboratory Centrifuge, Sigma 4-15C, Qiagen (SIGMA GmbH, Germany) […]
allowed to mix in a rotator for 1 h at 30 rpm. Phase separation was assured by centrifugation for […]
dilution. The samples (both phases) were analyzed using a HPLC system coupled with a tandem mass spectrometer. Mebendazole was used as a reference compound. […]
where: SO – peak area of the analyte in octanol phase
S P – peak area of the analyte in PBS buffer do – dilution coefficient for octanol phase dp – dilution coefficient for aqueous phase

Fusarium verticillioides = test: Antifungal activity, agar well diffusion method; type: cell-based; conditions: for zone of inhibition at 3.9 µg/mL / zone of inhibition at […] / zone of inhibition at 15.6 µg/mL / zone of inhibition at 31.25 µg/mL / zone of inhibition at 62.5 µg/mL / zone of inhibition at 125 µg/mL / zone of inhibition at 250 µg/mL / zone of inhibition at 500 µg/mL / zone of inhibition at 1000 µg/mL: Fusarium verticillioides, 0 = absence of antifungal activity, read-out: Diameter of inhibition zone; for zone of inhibition at 3.9 µg/mL: 0.0039 mg/mL; for zone of inhibition at […]: 0.0078 mg/mL; for zone of inhibition at 15.6 µg/mL: 0.0156 mg/mL; for zone of inhibition at 31.25 µg/mL: 0.03125 mg/mL; for zone of inhibition at 62.5 µg/mL: 0.0625 mg/mL; for zone of inhibition at 125 µg/mL: 0.125 mg/mL; for zone of inhibition at 250 µg/mL: 0.25 mg/mL; for zone of inhibition at 500 µg/mL: 0.5 mg/mL; for zone of inhibition at 1000 µg/mL: 1 mg/mL, 40 µl per well, 25 °C, 72 h; for lowest inhibition concentration: agar well diffusion, tested 0.0039-1.0 mg/mL
Excerpt: (§1) The agar well diffusion method is widely used to evaluate the antimicrobial activity of different substances (S. Magaldi, S. Mata-Essayag, C. Hartung de Capriles, et al. Well diffusion for antifungal susceptibility testing, Int. J. Infect. Dis. 8, 2004 , 39–45; C. Valgas, S. M. De Souza, E. F. A. Smânia, et al. Screening methods to determine antibacterial activity of natural products. Braz. J. Microbiol. 38 , 2007 , 369–380). Similarly to the procedure used in a disk-diffusion method, the agar plate surface is inoculated by spreading a volume of the microbial inoculum over the entire agar surface. Then, a hole with a diameter of 6 to 8 mm is punched aseptically with a sterile cork borer or a tip, and a volume […] of the antimicrobial agent or extract solution at desired concentration is introduced into the well. Then, agar plates are incubated under suitable conditions depending upon the test microorganism. The antimicrobial agent diffuses in the agar medium and inhibits the growth of the microbial strain tested (M. Balouiri, M. Sadiki, S. K. Ibnsouda. Methods for in vitro evaluating […]
(§2) Agar well diffusion method is a qualitative method used to measure the ability of compounds to inhibit microbial growth. This test is a quick and easy way to measure and compare levels of inhibitory […]
(§3) Antifungal activity of the synthetic compounds using agar well diffusion The compunds were tested towards plant pathogens Fusarium oxysporum Schltdl. and F. verticillioides (Sacc.) Nirenberg isolated from crops. Antifungal activity of the synthetic compounds was evaluated with using of an agar well diffusion method based on a disk diffusion assay for testing filamentous fungi (CLSI M51-A) [CLSI. Method for Antifungal Disk Diffusion Susceptibility Testing of Nondermatophyte Filamentous Fungi; Approved Guideline.CLSI document M51-A. Wayne, PA:
(§4) Clinical and Laboratory Standards Institute; 2010. This method is standardized for Altenaria , Aspergillus, Bipolaris , Fusarium , order Mucorales etc.
(§5) Preparation of synthetic compounds for mycological assay
(§6) Solutions of fungicides and its analogs were diluted in dimethyl sulfoxide (DMSO) to produce the […]
(§7) Antifungal well diffusion method
(§8) The fungal strains were cultured on potato dextrose agar slants (PDA, Eur. Pharm.) and incubated at 25 °C for 5 days. Sterile distilled water was used to cover and resuspend the colonies. Suspension of […]
(§9) conidia was adjusted to inoculums 5×10^6 conidia/mL. The suspension was further diluted in warm PDA 1:10 to obtain final working inoculums 5×10^5 conidia/mL.
(§10) Polypropylene cylinders (d, 5 mm) were placed on the surface and wells punched in the medium were used as reservoir of the test substances in different concentrations. 40 µl of solutions containing 0.0039-1.0 mg/mL of a test compound was added into the wells.
(§11) Each compound was tested in triplicate at different concentrations. Growth control was a well with 40 µl of DMSO, which was used for test components dilution.
(§12) Plates incubated at 25 °C for 72 h. The test compounds at known concentration into contact with an inoculated medium then exerts a growth-inhibiting effect then a clear zone (the zone of inhibition) appears around the test product. Diameter of a clear zone around the well is measured at the end of the incubation period in millimeters. If the fungal strain is susceptible to the antifungal agent, then a zone of inhibition appears on the agar plate. If it is resistant to the test compound, then no zone is evident.
(§13) The size of the zone of inhibition is usually related to the level of antifungal activity present in the […]
(§14) The growth rate of Fusarium oxysporum and F. verticillioides for each well was determined visually and compared with the growth of control.
(§15) As shown in the table the antifungal activity of the 6 compounds, - Fluxapyroxad, compound 28, compound 29, Boscalid, compound 30, compound 31, - were tested against plant pathogenic fungal […]
(§16) toward Fusarium oxysporum (Table S5, Figure S16). Inhibition zones of all compounds characterized […]

Fusarium oxysporum = test: Antifungal activity, agar well diffusion method; type: cell-based; conditions: for zone of inhibition at 3.9 µg/mL / zone of inhibition at […] / zone of inhibition at 15.6 µg/mL / zone of inhibition at 31.25 µg/mL / zone of inhibition at 62.5 µg/mL / zone of inhibition at 125 µg/mL / zone of inhibition at 250 µg/mL / zone of inhibition at 500 µg/mL / zone of inhibition at 1000 µg/mL: Fusarium oxysporum, zones st (static growth), read-out: Diameter of inhibition zone; for zone of inhibition at 3.9 µg/mL: 0.0039 mg/mL; for zone of inhibition at […]: 0.0078 mg/mL; for zone of inhibition at 15.6 µg/mL: 0.0156 mg/mL; for zone of inhibition at 31.25 µg/mL: 0.03125 mg/mL; for zone of inhibition at 62.5 µg/mL: 0.0625 mg/mL; for zone of inhibition at 125 µg/mL: 0.125 mg/mL; for zone of inhibition at 250 µg/mL: 0.25 mg/mL; for zone of inhibition at 500 µg/mL: 0.5 mg/mL; for zone of inhibition at 1000 µg/mL: 1 mg/mL, 40 µl per well, 25 °C, 72 h; for lowest inhibition concentration: agar well diffusion, tested 0.0039-1.0 mg/mL
Excerpt: as §1, §2, §3, §4, §5, §6, §7, §8, §9, §10, §11, §12, §13, §14, §15, §16

[1] = pH 7.4, LogD, pH 7.4, incubation 1
[2] = pH 7.4, LogD, pH 7.4, incubation 3
[3] = pH 7.4, LogD, pH 7.4, incubation 2

SMILES	D (partition ratio), incubation 1 (physchem)	D (partition ratio), incubation 2 (physchem)	D (partition ratio), incubation 3 (physchem)	logD at 1 h (physchem; pH 7.4, LogD, pH 7.4 (mean))	logD at 1 h (physchem; [1])	logD at 1 h (physchem; [2])	logD at 1 h (physchem; pH 7.4, logD (7.4))	zone of inhibition at 3.9 µg/mL (Fusarium verticillioides)	zone of inhibition at […] (Fusarium verticillioides)	zone of inhibition at 15.6 µg/mL (Fusarium verticillioides)	zone of inhibition at 31.25 µg/mL (Fusarium verticillioides)	zone of inhibition at 62.5 µg/mL (Fusarium verticillioides)	zone of inhibition at 125 µg/mL (Fusarium verticillioides)	zone of inhibition at 250 µg/mL (Fusarium verticillioides)	zone of inhibition at 500 µg/mL (Fusarium verticillioides)	zone of inhibition at 1000 µg/mL (Fusarium verticillioides)	zone of inhibition at 3.9 µg/mL (Fusarium oxysporum)	zone of inhibition at […] (Fusarium oxysporum)	zone of inhibition at 15.6 µg/mL (Fusarium oxysporum)	zone of inhibition at 31.25 µg/mL (Fusarium oxysporum)	also measured
Cn1cc(C(=O)N[C@@H]2[C@@H]3CC[C@@]2(c2cc(F)c(F)c(F)c2)C3)c(C(F)F)n1 (relative stereo) [Compound 28]	3.24E+04	2.00E+04	1.32E+04	4.32	4.51	4.12	4.3	35 ± 1.5 mm	37 ± 1.5 mm	41 ± 1.2 mm	41 ± 1.7 mm	47 ± 1 mm	48 ± 1.5 mm	51 ± 1.5 mm	51 ± 1.7 mm	58 ± 1.5 mm	20 mm	25 mm	26 ± 1 mm	28 ± 1 mm	zone of inhibition at 62.5 µg/mL (Fusarium oxysporum): 30 ± 0.6 mm; zone of inhibition at 125 µg/mL (Fusarium oxysporum): 34 ± 1.2 mm; zone of inhibition at 250 µg/mL (Fusarium oxysporum): 38 ± 1.5 mm; zone of inhibition at 500 µg/mL (Fusarium oxysporum): 38 ± 0.6 mm; zone of inhibition at 1000 µg/mL (Fusarium oxysporum): 44 ± 1.15 mm; lowest inhibition concentration (Fusarium oxysporum): < 0.0039 mg/mL
Cn1cc(C(=O)N[C@@H]2[C@H]3C[C@]2(c2cc(F)c(F)c(F)c2)CO3)c(C(F)F)n1 (relative stereo) [Compound 29]	5.70E+02	6.13E+02	5.77E+02	2.77	2.76	2.76	2.8	0 mm	10 mm	15 ± 0.6 mm	26 ± 1.2 mm	31 ± 1.2 mm	35 ± 1 mm	39 ± 1.2 mm	41 ± 1.7 mm	45 ± 0.6 mm	9 ± 1.2 mm	13 ± 1.5 mm	14 ± 1.2 mm	18 ± 1.5 mm	logD at 1 h (physchem; [3]): 2.79; lowest inhibition concentration (Fusarium verticillioides): 0.0078 mg/mL; zone of inhibition at 62.5 µg/mL (Fusarium oxysporum): 18 ± 0.6 mm; zone of inhibition at 125 µg/mL (Fusarium oxysporum): 23 ± 0.6 mm; zone of inhibition at 250 µg/mL (Fusarium oxysporum): 32 ± 1.7 mm; zone of inhibition at 500 µg/mL (Fusarium oxysporum): 36 ± 1 mm; zone of inhibition at 1000 µg/mL (Fusarium oxysporum): 38 ± 1.53 mm; lowest inhibition concentration (Fusarium oxysporum): 0.0039 mg/mL
O=C(N[C@@H]1[C@@H]2CC[C@@]1(c1ccc(Cl)cc1)C2)c1cccnc1Cl (relative stereo) [Compound 30]	4.87E+02	3.16E+02	6.11E+02	2.66	2.69	2.79	3.5 ± 0.1	11 ± 1.2 mm	19 ± 1.2 mm	25 ± 0.6 mm	30 ± 0.6 mm	31 ± 1 mm	36 ± 1.7 mm	41 ± 1.2 mm	46 ± 1.7 mm	49 ± 1.2 mm	16 ± 1.2 mm	19 ± 1.2 mm	20 ± 1.5 mm	25 ± 0.6 mm	logD at 1 h (physchem; [3]): 2.5; lowest inhibition concentration (Fusarium verticillioides): < 0.0039 mg/mL; zone of inhibition at 62.5 µg/mL (Fusarium oxysporum): 25 mm; zone of inhibition at 125 µg/mL (Fusarium oxysporum): 30 mm; zone of inhibition at 250 µg/mL (Fusarium oxysporum): 30 mm; zone of inhibition at 500 µg/mL (Fusarium oxysporum): 30 mm; zone of inhibition at 1000 µg/mL (Fusarium oxysporum): 30 mm; lowest inhibition concentration (Fusarium oxysporum): < 0.0039 mg/mL

Source: article PMC10396955, “2-Oxabicyclo[2.1.1]hexanes as saturated bioisosteres of the ortho-substituted phenyl ring” (Nature Chemistry, 2023)
